Experimental data reported in article PMC6339567 (Analytical chemistry, 2018).
Values belong to the compound of their own block, whether it stands above or below them.

Key:
P-gp = P-gp (Mus musculus, UniProt P21447); assay: in vitro
[1] = test system: confluent monolayers of primary murine colonic epithelial cells; settings: Figure 4A
in vitro = settings: mouse
[2] = test system: confluent monolayers of primary murine colonic epithelial cells; type: in vitro ADME, mouse; settings: upper bound for all monolayers with TEER >300 Ω cm^2 (n=6)

P-gp, sequence (P21447 whole entry): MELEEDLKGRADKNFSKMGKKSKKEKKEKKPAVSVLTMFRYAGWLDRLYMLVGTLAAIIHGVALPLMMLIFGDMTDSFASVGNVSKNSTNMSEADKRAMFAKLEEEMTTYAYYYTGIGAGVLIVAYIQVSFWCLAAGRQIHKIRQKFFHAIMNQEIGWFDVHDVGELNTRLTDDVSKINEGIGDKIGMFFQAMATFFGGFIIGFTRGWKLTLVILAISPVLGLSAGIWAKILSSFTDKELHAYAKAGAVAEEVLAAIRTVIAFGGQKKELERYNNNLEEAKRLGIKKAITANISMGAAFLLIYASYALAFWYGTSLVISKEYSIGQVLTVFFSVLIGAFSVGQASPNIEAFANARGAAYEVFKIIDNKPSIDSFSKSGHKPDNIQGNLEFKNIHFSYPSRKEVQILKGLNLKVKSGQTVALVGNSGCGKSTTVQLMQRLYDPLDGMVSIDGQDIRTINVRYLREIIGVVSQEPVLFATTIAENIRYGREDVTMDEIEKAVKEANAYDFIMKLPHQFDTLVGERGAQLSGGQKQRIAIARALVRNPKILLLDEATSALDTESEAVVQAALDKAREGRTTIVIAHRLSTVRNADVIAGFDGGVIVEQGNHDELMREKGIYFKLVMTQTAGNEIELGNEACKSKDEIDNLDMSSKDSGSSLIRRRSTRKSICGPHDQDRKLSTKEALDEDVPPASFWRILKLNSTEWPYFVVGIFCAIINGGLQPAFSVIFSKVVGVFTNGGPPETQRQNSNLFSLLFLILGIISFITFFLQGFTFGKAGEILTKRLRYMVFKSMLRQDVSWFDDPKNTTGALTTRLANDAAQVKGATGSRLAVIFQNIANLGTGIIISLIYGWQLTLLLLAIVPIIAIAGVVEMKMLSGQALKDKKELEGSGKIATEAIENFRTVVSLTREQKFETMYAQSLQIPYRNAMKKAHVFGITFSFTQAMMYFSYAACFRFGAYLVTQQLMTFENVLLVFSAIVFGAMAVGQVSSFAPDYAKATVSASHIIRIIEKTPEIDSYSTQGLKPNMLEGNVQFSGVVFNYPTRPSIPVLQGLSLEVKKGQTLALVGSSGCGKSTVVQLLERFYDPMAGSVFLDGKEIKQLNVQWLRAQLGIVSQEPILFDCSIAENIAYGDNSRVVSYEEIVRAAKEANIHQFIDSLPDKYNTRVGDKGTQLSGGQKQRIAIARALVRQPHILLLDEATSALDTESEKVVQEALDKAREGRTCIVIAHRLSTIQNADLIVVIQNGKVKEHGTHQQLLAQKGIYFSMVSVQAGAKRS

efflux ratio at 2 h, 10 µM (P-gp): 7
Compound: COC(=O)c1ccccc1-c1c2ccc(=N)cc-2oc2cc(N)ccc12 [Rh123, rhodamine 123]

permeability across day-5 monolayers (in words) [1]: high Papp | Papp at 3 h, 10 µM (in vitro): 9.69 ×10⁻⁶ cm/s
Compound: CC(C)NCC(O)COc1cccc2ccccc12 (stereo not shown) [propranolol]

Papp for LY, all monolayers with TEER >300 Ω cm^2 [2]: < 0.45 ×10⁻⁶ cm/s
Compound: lucifer yellow [LY]
